# Reference: patent US9914730B2, “Azaquinazoline inhibitors of Atypical protein Kinase C” (Ignyta, Inc., priority 2012, dated 2018)
# pIC50: −log10 of the molar value.
# Target: T1, full-length human PKCι (Homo sapiens, UniProt P41743)
# T1 construct: Recombinant, full-length human PKCι expressed in Sf21 insect cells is also commercially available; purchased; host or cells: Sf21 insect cells
# T1 sequence (P41743 1-596): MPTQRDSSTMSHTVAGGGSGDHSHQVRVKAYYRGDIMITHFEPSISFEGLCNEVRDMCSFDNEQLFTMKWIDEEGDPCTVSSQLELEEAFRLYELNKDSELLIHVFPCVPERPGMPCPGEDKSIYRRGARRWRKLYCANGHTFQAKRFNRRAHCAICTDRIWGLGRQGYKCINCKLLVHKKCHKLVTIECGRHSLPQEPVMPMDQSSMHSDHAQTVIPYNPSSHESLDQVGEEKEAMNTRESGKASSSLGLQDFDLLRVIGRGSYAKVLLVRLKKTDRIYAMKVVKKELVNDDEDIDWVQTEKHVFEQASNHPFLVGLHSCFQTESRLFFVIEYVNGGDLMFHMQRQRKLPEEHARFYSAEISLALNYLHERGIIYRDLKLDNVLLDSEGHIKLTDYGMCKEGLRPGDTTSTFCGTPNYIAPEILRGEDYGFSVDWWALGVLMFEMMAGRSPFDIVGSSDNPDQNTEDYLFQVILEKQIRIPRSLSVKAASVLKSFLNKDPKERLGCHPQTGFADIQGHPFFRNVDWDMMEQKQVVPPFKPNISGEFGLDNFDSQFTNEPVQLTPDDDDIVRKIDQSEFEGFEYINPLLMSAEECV
# Assay: PKCι IC50 IMAP assay, full-length PKCι at 150 μM ATP
# Type: biochemical
# Settings: read-out: IC50 in IMAP assay against full length PKCi at 150 μM ATP
# Procedure, shortened: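 Full-length hPKCι (Sf21) ~15 pM; 5FAM-peptide 100 nM; ATP 150 μM (5× KM^APP); tris pH7.5/MgCl2/EGTA/DTT/Triton, 4% DMSO; 60 min RT; IMAP stop, 2 h; FP 485/530 nm; IC50 from % inhibition curves.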
row,pIC50,Compound
1,> 7.00,"Fc1cc(F)c(F)c(Nc2cc(-c3nc(NC4CCNCC4)c4c(C5CC5)cncc4n3)ccn2)n1 [Example 2062, {5-Cyclopropyl-2-[2-(3,4,6-trifluoro-pyridin-2-ylamino)-pyridin-4-yl]-pyrido[3,4-d]pyrimidin-4-yl}-piperidin-4-yl-amine]"
2,4.40 to 5.00,"FC(F)(F)C1CN(c2nc(-c3ccncc3)nc3cnccc23)CCN1 (stereo not drawn) [Example 59, 1-[2-(pyridin-4-yl)-pyrido[3,4-d]-pyrimidin-4-yl]-3-(trifluoromethyl)-piperazine]"
3,4.40 to 5.00,"CNc1ccc(Nc2nc(-c3ccnc(Nc4ncc(F)cc4F)c3)nc3cncc(C4CC4)c23)cc1 [Example 2206, N-{5-Cyclopropyl-2-[2-(3,5-difluoro-pyridin-2-ylamino)-pyridin-4-yl]-pyrido[3,4-d]pyrimidin-4-yl}-N′-methyl-benzene-1,4-diamine]"
4,> 7.00,"c1ccc(Nc2cc(-c3nc(N4CCNC5CC54)c4c(C5CC5)cncc4n3)ccn2)cc1 (stereo not drawn) [Example 537, {4-[5-Cyclopropyl-4-(2,5-diaza-bicyclo-[4.1.0]hept-2-yl)-pyrido[3,4-d]-pyrimidin-2-yl]-pyridin-2-yl}-phenyl-amine]"
5,4.40 to 5.00,"[4-(5-Cyclopropyl- 4-piperazin-1-yl- pyrido[3,4- d]pyrimidin-2-yl)- pyridin-2-yl]-(4- trifluoromethyl- phenyl)-amine [Example 596]"
6,6.00 to 7.00,"CN1CCN(c2cccc(Nc3cc(-c4nc(N5CCCC5)c5c(C6CC6)cncc5n4)ccn3)c2)CC1 [Example 760, [4-(5-Cyclopropyl-4-pyrrolidin-1-yl-pyrido[3,4-d]pyrimidin-2-yl)-pyridin-2-yl]-[3-(4-methyl-piperazin-1-yl)-phenyl]-amine]"
7,5.00 to 6.00,"COc1cncc2nc(-c3ccncc3)nc(N3CCN4C(=O)OC[C@H]4C3)c12 [Example 86, (3aR)-5-[5-methoxy-2-(pyridin-4-yl)pyrido[3,4-d]pyrimidin-4-yl]-hexahydro-1H-[1,3]oxazolo[3,4-a]piperazin-1-one]"
8,> 7.00,"CC1(C)CN(c2nc(-c3ccnc(Nc4nc(F)cc(F)c4F)c3)nc3cncc(C4CC4)c23)CCN1 [Example 845, {4-[5-Cyclopropyl-4-(3,3-dimethyl-piperazin-1-yl)-pyrido[3,4-d]pyrimidin-2-yl]-pyridin-2-yl}-(3,4,6-trifluoro-pyridin-2-yl)-amine]"
9,> 7.00,"COc1cncc2nc(-c3ccnc4[nH]c(Cc5ccccc5)cc34)nc(N3CCNCC3)c12 [Example 1202, 2-(2-Benzyl-1H-pyrrolo[2,3-b]pyridin-4-yl)-5-methoxy-4-piperazin-1-yl-pyrido[3,4-d]pyrimidine]"
10,> 7.00,"COc1cncc2nc(-c3ccnc(Nc4cccc(F)n4)c3)nc(N3CCNCC3)c12 [Example 447, (6-Fluoro-pyridin-2-yl)-[4-(5-methoxy-4-piperazin-1-yl-pyrido[3,4-d]pyrimidin-2-yl)-pyridin-2-yl]-amine]"
11,5.00 to 6.00,"COC(=O)[C@@H]1C[C@H](NC(=O)[C@@H]2C[C@H](Nc3nc(-c4ccncc4)nc4cnccc34)CN2)CN1 [Example 40, methyl (2S,4S)-4-[(2S,4S)-4-{[2-(pyridin-4-yl)-pyrido[3,4-d]-pyrimidin-4-yl]-amino}pyrrolidine-2-amido]pyrrolidine-2-carboxylate]"
12,> 7.00,"CN(c1nc(-c2ccnc(Nc3c(F)cccc3F)c2)nc2cncc(C3CC3)c12)C1CNC1 [Example 2029, Azetidin-3-yl-{5-cyclopropyl-2-[2-(2,6-difluoro-phenylamino)-pyridin-4-yl]-pyrido[3,4-d]pyrimidin-4-yl}-methyl-amine]"
13,> 7.00,"COc1ccc(Nc2cc(-c3nc(N4CCNCC4)c4c(OC)cncc4n3)ccn2)cn1 [Example 394, [4-(5-Methoxy-4-piperazin-1-yl-pyrido[3,4-d]pyrimidin-2-yl)-pyridin-2-yl]-(6-methoxy-pyridin-3-yl)-amine]"
14,6.00 to 7.00,"FC(F)(F)C1CN(c2nc(-c3ccnc(Cl)c3)nc3cncc(C4CC4)c23)CCN1 (stereo not drawn) [Example 624, 2-(2-Chloro-pyridin-4-yl)-5-cyclopropyl-4-(3-trifluoromethyl-piperazin-1-yl)-pyrido[3,4-d]pyrimidine]"
15,5.00 to 6.00,"N[C@H](CNc1nc(-c2ccncc2)nc2c(Nc3cccc(Cl)c3)nccc12)Cc1ccccc1 [Example 125, 4-N-[(2S)-2-amino-3-phenylpropyl]-8-N-(3-chlorophenyl)-2-(pyridin-4-yl)pyrido[3,4-d]pyrimidine-4,8-diamine]"
16,5.00 to 6.00,"CC1(C)C(=O)Nc2nccc(-c3nc(N4CCNCC4)c4c(C5CC5)cncc4n3)c21 [Example 2211, 4-(5-Cyclopropyl-4-piperazin-1-yl-pyrido[3,4-d]pyrimidin-2-yl)-3,3-dimethyl-1,3-dihydro-pyrrolo[2,3-b]pyridin-2-one]"
17,> 7.00,"COc1cncc2nc(-c3ccnc(Nc4ccccn4)c3)nc(N3CCNCC3)c12 [Example 387, [4-(5-Methoxy-4-piperazin-1-yl-pyrido[3,4-d]pyrimidin-2-yl)-pyridin-2-yl]-pyridin-2-yl-amine]"
18,> 7.00,"c1ccn2nc(Nc3cc(-c4nc(N5CCNCC5)c5c(C6CCC6)cncc5n4)ccn3)nc2c1 [Example 2022, [4-(5-Cyclobutyl-4-piperazin-1-yl-pyrido[3,4-d]pyrimidin-2-yl)-pyridin-2-yl]-[1,2,4]triazolo[1,5-a]pyridin-2-yl-amine]"
19,> 7.00,"CN(c1nc(-c2ccnc3[nH]c(C(F)(F)F)cc23)nc2c(Cl)ncc(C3CC3)c12)C1CCNCC1 [Example 2136, [8-Chloro-5-cyclopropyl-2-(2-trifluoromethyl-1H-pyrrolo[2,3-b]pyridin-4-yl)-pyrido[3,4-d]pyrimidin-4-yl]-methyl-piperidin-4-yl-amine]"
20,> 7.00,"Fc1ccccc1-c1cc2c(-c3nc(N4CCNCC4)c4c(C5CCC5)cncc4n3)ccnc2[nH]1 [Example 2203, 5-Cyclobutyl-2-[2-(2-fluoro-phenyl)-1H-pyrrolo[2,3-b]pyridin-4-yl]-4-piperazin-1-yl-pyrido[3,4-d]pyrimidine]"
21,> 7.00,"Fc1cc(F)nc(Nc2cc(-c3nc(N4CCNCC4)c4c(C5CCC5)cncc4n3)ccn2)c1 [Example 2011, [4-(5-Cyclobutyl-4-piperazin-1-yl-pyrido[3,4-d]pyrimidin-2-yl)-pyridin-2-yl]-(4,6-difluoro-pyridin-2-yl)-amine]"
22,> 7.00,"c1cc(-c2nc(N3CCNCC3)c3c(C4CC4)cncc3n2)cc(NC2CCOCC2)n1 [Example 283, [4-(5-Cyclopropyl-4-piperazin-1-yl-pyrido[3,4-d]pyrimidin-2-yl)-pyridin-2-yl]-(tetrahydro-pyran-4-yl)-amine]"
23,> 7.00,"COc1cncc2nc(-c3ccncc3)nc(N3CCN[C@@H](C(F)c4ccccc4)C3)c12 (stereo partly drawn) [Example 74, (3R)-3-[fluoro(phenyl)-methyl]-1-[5-methoxy-2-(pyridin-4-yl)-pyrido[3,4-d]-pyrimidin-4-yl]-piperazine]"

row,Compound,pIC50
1,"CN(c1nc(-c2ccnc(Nc3c(F)cccc3F)c2)nc2cncc(C3CC3)c12)C1CCNCC1 [Example 833, {5-Cyclopropyl-2-[2-(2,6-difluoro-phenylamino)-pyridin-4-yl]-pyrido[3,4-d]pyrimidin-4-yl}-methyl-piperidin-4-yl-amine]",> 7.00
